Test results taken from patent publication US7138361B2, “Herbicidal heterocycles” (E. I. du Pont de Nemours and Company, priority 2000, dated 2006).

Legend:
Assay type in all cases: in vivo
[1] = test system: Surinam grass (Brachiaria decumbens); test: Test B preemergence; details: scale 0 to 100, 0 no effect, 100 complete control
In short: (§1)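 Ratings on a 0 to 100 visual scale (100 complete control) compare treated plants with controls 13 to 15 days after application. Treatments were pre- or postemergence sprays of compound in non-phytotoxic solvent with surfactant.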

[2] = test system: barnyardgrass (Echinochloa crus-galli); test: Test B preemergence; details: scale 0 to 100, 0 no effect, 100 complete control
In short: as §1

[3] = test system: cocklebur (Xanthium strumarium); test: Test B preemergence; details: scale 0 to 100, 0 no effect, 100 complete control
In short: as §1

corn (Zea mays) = test: Test B preemergence; details: scale 0 to 100, 0 no effect, 100 complete control
In short: as §1

[4] = test system: crabgrass (Digitaria sanguinalis); test: Test B preemergence; details: scale 0 to 100, 0 no effect, 100 complete control
In short: as §1

[5] = test system: giant foxtail (Setaria faberii); test: Test B preemergence; details: scale 0 to 100, 0 no effect, 100 complete control
In short: as §1

[6] = test system: lambsquarters (Chenopodium album); test: Test B preemergence; details: scale 0 to 100, 0 no effect, 100 complete control
In short: as §1

[7] = test system: morning glory (Ipomoea hederacea); test: Test B preemergence; details: scale 0 to 100, 0 no effect, 100 complete control
In short: as §1

[8] = test system: pigweed (Amaranthus retroflexus); test: Test B preemergence; details: scale 0 to 100, 0 no effect, 100 complete control
In short: as §1

rice (Oryza saliva) [9] = test: Test B preemergence; details: scale 0 to 100, 0 no effect, 100 complete control
In short: as §1

[10] = test system: velvetleaf (Abutilon theophrasti); test: Test B preemergence; details: scale 0 to 100, 0 no effect, 100 complete control
In short: as §1

Sunflower [11] = test: Test C preemergence
[12] = test system: pigweed (Amaranthus retroflexus); test: Test C preemergence
In short: (§2)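 Formulation: non-phytotoxic solvent mix incl. surfactant. Pre: applied right after planting. Post: 1–4-leaf seedlings. Read: visual 0–100, day 12–14, greenhouse.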

[13] = test system: velvetleaf (Abutilon theophrasti); test: Test C preemergence
In short: as §2

[14] = test system: woolly cupgrass (Eriochloa villosa); test: Test C preemergence
In short: as §2

[15] = test system: barnyardgrass (Echinochloa crus-galli); test: Test C flooded paddy test; details: for Barnyardgrass plant response rating: Flooded Paddy, scale 0 to 100, 0 no effect, 100 complete control; for Plant response rating, Barnyardgrass: flooded paddy test, scale 0 to 100 (0 no effect, 100 complete control)
In short: (§3)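 Response on a 0-to-100 scale (no effect to complete control) was assessed by eye versus controls. Plants had reached 2 leaves when treated in flooded paddy conditions. The assessment took place after 12–14 days of greenhouse growth.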

[16] = test system: duck salad (Heteranthera limosa); test: Test C flooded paddy test; details: for Ducksalad plant response rating: Flooded Paddy, scale 0 to 100, 0 no effect, 100 complete control; for Plant response rating, Ducksalad: flooded paddy test, scale 0 to 100 (0 no effect, 100 complete control)
In short: as §3

rice (Oryza saliva) [17] = test: Test C flooded paddy test; details: for Rice plant response rating: Flooded Paddy, scale 0 to 100, 0 no effect, 100 complete control; for Plant response rating, Rice: flooded paddy test, scale 0 to 100 (0 no effect, 100 complete control)
In short: as §3

[18] = test system: smallflower flatsedge (Cyperus difformis); test: Test C flooded paddy test; details: for Flatsedge plant response rating: Flooded Paddy, scale 0 to 100, 0 no effect, 100 complete control; for Plant response rating, Flatsedge: flooded paddy test, scale 0 to 100 (0 no effect, 100 complete control)
In short: as §3

Nightshade = test: Test C preemergence; details: Rate 250 g/ha, visual evaluation after 12 to 14 days
Sunflower [19] = test: Test C preemergence; details: Rate 250 g/ha, visual evaluation after 12 to 14 days
[20] = Rate 62 g/ha, scale 0 to 100, 0 no effect, 100 complete control
[21] = Preemergence, Rate 500 g/ha, scale 0 to 100
[22] = preemergence, Rate 250 g/ha, visual evaluation after 12 to 14 days
[23] = preemergence, Rate 125 g/ha, scale 0 to 100, 0 no effect, 100 complete control

## CC(C)(C)c1ccn(C2CCN(c3cccc(C(F)(F)F)c3)C2=S)n1 (stereo not drawn) [Compound 22]
[1]; Preemergence, Rate 500 g/ha
  Plant response rating, Surinam grass: 50
[1]; preemergence, Rate 125 g/ha
  Plant response rating, Surinam grass: 30
[2]; Preemergence, Rate 500 g/ha
  Plant response rating, Barnyardgrass: 80
[2]; preemergence, Rate 125 g/ha
  Plant response rating, Barnyardgrass: 0
[3]; Preemergence, Rate 500 g/ha
  Plant response rating, Cocklebur: 0
[3]; preemergence, Rate 125 g/ha
  Plant response rating, Cocklebur: 0
Corn (Zea mays); Preemergence, Rate 500 g/ha
  Plant response rating, Corn: 0
Corn (Zea mays); preemergence, Rate 125 g/ha
  Plant response rating, Corn: 0
[4]; Preemergence, Rate 500 g/ha
  Plant response rating, Crabgrass: 100
[4]; preemergence, Rate 125 g/ha
  Plant response rating, Crabgrass: 0
[5]; Preemergence, Rate 500 g/ha
  Plant response rating, Foxtail, Giant: 100
[5]; preemergence, Rate 125 g/ha
  Plant response rating, Foxtail, Giant: 30
[6]; Preemergence, Rate 500 g/ha
  Plant response rating, Lambsquarters: 100
[6]; preemergence, Rate 125 g/ha
  Plant response rating, Lambsquarters: 100
[7]; Preemergence, Rate 500 g/ha
  Plant response rating, Morningglory: 0
[7]; preemergence, Rate 125 g/ha
  Plant response rating, Morningglory: 0
[8]; Preemergence, Rate 500 g/ha
  Plant response rating, Pigweed: 100
[8]; preemergence, Rate 125 g/ha
  Plant response rating, Pigweed: 90
Rice (Oryza saliva) [9]; Preemergence, Rate 500 g/ha
  Plant response rating, Rice: 0
Rice (Oryza saliva) [9]; preemergence, Rate 125 g/ha
  Plant response rating, Rice: 0
[10]; Preemergence, Rate 500 g/ha
  Plant response rating, Velvetleaf: 0
[10]; preemergence, Rate 125 g/ha
  Plant response rating, Velvetleaf: 0
Sunflower [11]; [20]
  Plant response rating, Sunflower: 0
Sunflower [11]; Rate 500 g/ha, scale 0 to 100
  Plant response rating, Sunflower: 0
[12]; [21]
  Plant response rating, Pigweed: 100
[12]; [20]
  Plant response rating, Pigweed: 100
[12]; [22]
  Plant response rating (0 to 100), Pigweed: 50
[12]; [23]
  Plant response rating, Pigweed: 50
[13]; [21]
  Plant response rating, Velvetleaf: 0
[13]; [20]
  Plant response rating, Velvetleaf: 0
[13]; [22]
  Plant response rating (0 to 100), Velvetleaf: 0
[13]; [23]
  Plant response rating, Velvetleaf: 0
[14]; [21]
  Plant response rating, Cupgrass, Woolly: 100
[14]; [20]
  Plant response rating, Cupgrass, Woolly: 40
[14]; [22]
  Plant response rating (0 to 100), Cupgrass, Woolly: 100
[14]; [23]
  Plant response rating, Cupgrass, Woolly: 70
[15]; Rate 250 g/ha
  Barnyardgrass plant response rating: 100
[15]; Rate 500 g/ha
  Barnyardgrass plant response rating: 100
[15]; Rate 62 g/ha
  Plant response rating, Barnyardgrass: 40
[15]; Rate 125 g/ha
  Plant response rating, Barnyardgrass: 80
[16]; Rate 250 g/ha
  Ducksalad plant response rating: 80
[16]; Rate 500 g/ha
  Ducksalad plant response rating: 100
[16]; Rate 62 g/ha
  Plant response rating, Ducksalad: 50
[16]; Rate 125 g/ha
  Plant response rating, Ducksalad: 80
Rice (Oryza saliva) [17]; Rate 250 g/ha
  Rice plant response rating: 20
Rice (Oryza saliva) [17]; Rate 500 g/ha
  Rice plant response rating: 40
Rice (Oryza saliva) [17]; Rate 62 g/ha
  Plant response rating, Rice: 20
Rice (Oryza saliva) [17]; Rate 125 g/ha
  Plant response rating, Rice: 20
[18]; Rate 250 g/ha
  Flatsedge plant response rating: 100
[18]; Rate 500 g/ha
  Flatsedge plant response rating: 100
[18]; Rate 62 g/ha
  Plant response rating, Flatsedge: 100
[18]; Rate 125 g/ha
  Plant response rating, Flatsedge: 100
Nightshade
  Plant response rating (0 to 100), Nightshade: 40
Sunflower [19]
  Plant response rating (0 to 100), Sunflower: 0
